*1 amine or outer side, *2 acyl side, *3 side chain or, on linkers, in order; H or OH if unused. Where a SMILES comes first, the peptide text is derived from it. Bridges are numbered along the chain shown (N, C = ends). Roman numbers before positions name the chains, in order. [ ]: non-standard residue; d: D form. ξ: configuration not given here. X1 = O=C(OCCOCCOCCOCCOCCOCCOCCOCCOCCOCCOCCOCCOC(=O)[*:2])[*:1]; PEG8 = NCCOCCOCCOCCOCCOCCOCCOCCOCCC(=O)O; 3Pal = N[C@@H](Cc1cccnc1)C(=O)O; ξK = NCCCCC(N)C(=O)O; ξP = O=C(O)C1CCCN1; ξC = NC(CS)C(=O)O
Assays:
Type in all cases: cell-based
[1] = target: T1, TrkB (CellSensor TrkB-NFAT-bla CHO-K1 Cell) (Homo sapiens, UniProt Q16620); test: pERK1/2 AlphaLISA assay (phosphorylation of ERK) for TrkB agonist activity; details: class = peptide concentration giving 50% or more activity; BDNF maximum signal = 100%, no stimulation = 0%; 15 minutes of stimulation
T1 construct: host or cells: CHO-K1 (CellSensor TrkB-NFAT-bla CHO-K1)
T1 sequence (Q16620 32-822): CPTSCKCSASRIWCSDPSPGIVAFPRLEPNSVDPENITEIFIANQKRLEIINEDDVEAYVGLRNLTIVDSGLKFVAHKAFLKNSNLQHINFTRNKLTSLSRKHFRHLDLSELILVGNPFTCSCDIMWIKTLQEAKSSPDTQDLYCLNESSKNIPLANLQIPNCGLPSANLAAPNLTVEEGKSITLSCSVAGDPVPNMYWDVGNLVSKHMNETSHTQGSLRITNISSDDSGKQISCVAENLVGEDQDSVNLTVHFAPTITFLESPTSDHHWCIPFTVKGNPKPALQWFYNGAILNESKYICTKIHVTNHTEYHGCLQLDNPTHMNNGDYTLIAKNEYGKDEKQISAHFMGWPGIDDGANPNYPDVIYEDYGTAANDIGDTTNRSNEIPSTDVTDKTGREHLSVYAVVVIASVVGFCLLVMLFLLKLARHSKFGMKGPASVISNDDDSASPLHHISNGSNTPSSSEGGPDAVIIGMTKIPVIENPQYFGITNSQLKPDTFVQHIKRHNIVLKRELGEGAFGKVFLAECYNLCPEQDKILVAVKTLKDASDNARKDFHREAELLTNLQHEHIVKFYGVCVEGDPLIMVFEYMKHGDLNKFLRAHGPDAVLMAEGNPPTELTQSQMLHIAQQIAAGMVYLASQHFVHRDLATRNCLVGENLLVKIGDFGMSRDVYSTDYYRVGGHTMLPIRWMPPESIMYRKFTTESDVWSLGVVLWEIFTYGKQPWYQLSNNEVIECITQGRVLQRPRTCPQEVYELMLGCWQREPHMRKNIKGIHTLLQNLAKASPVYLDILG
Experimental: To evaluate the TrkB activation potency of the TrkB agonist peptide of the present invention, the phosphorylation of ERK was examined. CellSensor (registered trademark) TrkB-NFAT-bla CHO-K1 Cell (Invitrogen) was cultured in DMEM, high glucose, GlutaMAX (registered trademark) Supplement, and pyruvate (Thermo), comprising 10% FBS (Thermo) and 1× Non-essential amino acids (Thermo), 25 mM HEPES (Thermo), 50 ug/mL Gentamicin, 5 ug/mL Blasticidin (Thermo), and 200 ug/mL Zeocin (Thermo). After the cells were detached using Accutase (Innovative Cell Technologies), they were seeded into a 96-well plate for adherent cultures at 12,500 cells per well and cultured overnight. The next day, for starvation, the culture solution above was replaced with a nutrient starvation medium comprising 0.1% BSA (Sigma), wherein FBS, Blasticidin, and Zeocin were removed from the culture medium, and culturing was performed for 4 hours. Thereafter, Recombinant Human BDNF Protein (R&D Systems) or a peptide was added, and after 15 minutes of stimulation, cells were lysed in the Lysis Buffer provided with the AlphaLISA SureFire Ultra p-Erk1/2 (Thr202/Tyr204) assay kit (PerkinElmer). The assay was performed according to the kit protocol. The signals were detected using a SpectraMax Paradigm Multi-Mode Microplate Reader (Molecular Devices). The obtained signals were analyzed with GraphPad Prism, and the activity (%) was calculated with the maximum value of the signals induced by BDNF as 100% and a signal with no stimulation as 0%. The peptide with 50% or more activity when 1 nM of the peptide was added was evaluated as A, and the peptide with 50% or more activity when 10 nM of the peptide was added was evaluated as B.
The BDNF was evaluated at 8 points (0.0006 nM to 10 nM) from 10 nM using 4-fold dilutions.
(§1) For dimer structures Nos. 1 to 3, the peptide was evaluated at 1 nM, 10 nM, and 100 nM, and, for other dimer structure numbers, the peptide was evaluated at 0.1 nM, 1 nM, and 10 nM. When creating the concentration dependence curve, the BDNF and the peptides were evaluated at 8 points (0.006 nM to 100 nM) from 100 nM using 4-fold dilutions.

[2] = target: T1, TrkB (CellSensor TrkB-NFAT-bla CHO-K1 Cell); test: NFAT transcriptional reporter assay for TrkB agonist activity; details: class = peptide concentration giving 50% or more activity; BDNF maximum signal = 100%, no stimulation = 0%; 5 hours culture
Experimental: To evaluate the TrkB activation potency of the TrkB agonist peptide of the present invention, transcriptional activity was examined using transcriptional reporters. The CellSensor (registered trademark) TrkB-NFAT-bla CHO-K1 Cell (Invitrogen) used in the AlphaLISA assay was cultured in the medium above. After the cells were detached using Accutase (Innovative Cell Technologies), the cells were suspended in an assay medium, wherein Blasticidin and Zeocin were removed, then seeded into a 96-well plate for adherent cultures at 12,500 cells per well and cultured overnight. Then, BDNF or a peptide was added thereto, and the cells were further cultured in a CO2 incubator for 5 hours. After the 96-well plate was removed from the incubator and brought to room temperature, a detection reagent (LiveBLAzer (registered trademark)-FRET B/G (CCF4-AM) Substrate Mixture) was added while protected from the light, and the 96-well plate was incubated while protected from the light in a moisture box with a lid for 2 hours. For signal detection, a EnVision 2104 Multilabel Plate Reader (PerkinElmer) was used, and the ratio of fluorescence emission value (460 nm/535 nm) was calculated. The obtained numerical values were analyzed with GraphPad Prism, and the activity (%) was calculated with the maximum value of the signals induced by BDNF as 100% and a signal with no stimulation as 0%. The peptide with 50% or more activity when 1 nM of the peptide was added was evaluated as A, the peptide with 50% or more activity when 10 nM of the peptide was added was evaluated as B, and the peptide with 50% or more activity when 100 nM of the peptide was added was evaluated as C. Those that were not evaluated were listed as not tested.
The BDNF was evaluated at 7 points (0.0024 nM to 10 nM) from 10 nM using 4-fold dilutions.
as §1, with “at […]” for “at 8”, “[…]” for “from 100”

TrkB = TrkB (Homo sapiens, UniProt Q16620); test: PathHunter eXpress TrkB Functional Assay (phosphorylation of TrkB); details: stimulation for 3 hours; for Emax: maximum signal induced by BDNF = 100%
Sequence of TrkB (Q16620 32-822): as above
Experimental: To evaluate the TrkB activation potency of the TrkB agonist peptide of the present invention, the phosphorylation of TrkB was examined. The PathHunter (registered trademark) eXpress TrkB Functional Assay kit (DiscoverX; cells, 96-well plate, medium, and detection reagents included) was used and the evaluation was performed according to the attached protocols. The frozen cells were thawed and suspended in the medium, then seeded into a 96-well plate at 10,000 cells per well and incubated for 48 hours. Thereafter, Recombinant Human BDNF Protein (R&D Systems) or a peptide was added, and after stimulation for 3 hours, a detection reagent was added. The reaction was performed while protected from the light at room temperature for 60 minutes, and luminescent signals were measured using a SpectraMax Paradigm Multi-Mode Microplate Reader (Molecular Devices). The obtained signals were analyzed with GraphPad Prism, and the activity (%) was calculated with the maximum value of the signals induced by BDNF as 100% and a signal with no stimulation as 0%.
The BDNF was evaluated at 8 points (0.006 nM to 100 nM) from 100 nM using 4-fold dilutions. The peptide was evaluated in the measurement ranges A to C shown below. • Measurement range A=6 points from 100 nM using 5-fold dilutions (0.032 nM to 100 nM) • Measurement range B=8 points from 100 nM using 4-fold dilutions (0.006104 nM to 100 nM) • Measurement range C=4 points from 10 nM using 10-fold dilutions (0.01 nM to 10 nM)

Row | Compound | pERK (aLISA) Assay Results [1] | NFAT Assay Results [2] | Emax (TrkB) [%] | EC50 (TrkB) [nM]
1 | CC(C)[C@@H]1NC(=O)[C@H](Cc2cccnc2)NC(=O)[C@H](CCC(=O)O)NC(=O)[C@H](CO)NC(=O)[C@H](Cc2ccc(O)cc2)NC(=O)[C@H]([C@@H](C)O)NC(=O)[C@@H]2CCCN2C(=O)[C@H](Cc2c[nH]c3ccccc23)NC(=O)[C@H](Cc2cccnc2)NC(=O)[C@H](Cc2ccc(O)cc2)NC(=O)[C@@H]2CCCN2C(=O)[C@H](CCC(=O)O)NC(=O)[C@H](Cc2ccccc2)NC(=O)CSCC(C(=O)NCC(=O)N[C@@H](CCCCNC(=O)OCCOCCOCCOCCOCCOCCOCCOCCOCCOCCOCCOCCOC(=O)NCCCCC(NC(=O)CNC(=O)[C@@H]2CSCC(=O)N[C@@H](Cc3ccccc3)C(=O)N[C@@H](CCC(=O)O)C(=O)N3CCCC3C(=O)N[C@@H](Cc3ccc(O)cc3)C(=O)N[C@@H](Cc3cccnc3)C(=O)N[C@@H](Cc3c[nH]c4ccccc34)C(=O)N3CCCC3C(=O)N[C@@H]([C@@H](C)O)C(=O)N[C@@H](Cc3ccc(O)cc3)C(=O)N[C@@H](CO)C(=O)N[C@@H](CCC(=O)O)C(=O)N[C@@H](Cc3cccnc3)C(=O)N[C@@H](C(C)C)C(=O)N[C@@H](CCC(=O)O)C(=O)N2)C(N)=O)C(N)=O)NC(=O)[C@H](CCC(=O)O)NC1=O (stereo partly shown) [Dimer Structure No. 57] (I: {CH2CO}-FEPY[3Pal]WPTYSE[3Pal]VE[ξC]GK-NH2 / II: {CH2CO}-FE[ξP]Y[3Pal]W[ξP]TYSE[3Pal]VECG[ξK]-NH2; linker I:17-II:17 via X1; thioether I:N-I:15, II:N-II:15) | B (the peptide with 50% or more activity when 10 nM of the peptide was added was evaluated as B) | B (the peptide with 50% or more activity when 10 nM of the peptide was added was evaluated as B) | 89 | 0.8 to 4
2 | CC(C)C[C@@H]1NC(=O)[C@H](Cc2ccccc2)NC(=O)CSC[C@@H](C(=O)NCC(=O)NCCOCCOCCOCCOCCOCCOCCOCCOCCC(=O)NCCCC[C@H](NC(=O)CCOCCOCCOCCOCCOCCOCCOCCOCCNC(=O)CNC(=O)[C@@H]2CSCC(=O)N[C@@H](Cc3ccccc3)C(=O)N[C@@H](CC(C)C)C(=O)N3CCC[C@H]3C(=O)N[C@@H](Cc3ccc(O)cc3)C(=O)N[C@@H](Cc3cccnc3)C(=O)N[C@@H](Cc3c[nH]c4ccccc34)C(=O)N3CCC[C@H]3C(=O)N[C@@H]([C@@H](C)O)C(=O)N[C@@H](Cc3ccc(O)cc3)C(=O)N[C@@H](CO)C(=O)N[C@@H](CCC(=O)O)C(=O)N[C@@H](Cc3cccnc3)C(=O)N[C@@H](C(C)C)C(=O)N[C@@H](CCC(=O)O)C(=O)N2)C(N)=O)NC(=O)[C@H](CCC(=O)O)NC(=O)[C@H](C(C)C)NC(=O)[C@H](Cc2cccnc2)NC(=O)[C@H](CCC(=O)O)NC(=O)[C@H](CO)NC(=O)[C@H](Cc2ccc(O)cc2)NC(=O)[C@H]([C@@H](C)O)NC(=O)[C@@H]2CCCN2C(=O)[C@H](Cc2c[nH]c3ccccc23)NC(=O)[C@H](Cc2cccnc2)NC(=O)[C@H](Cc2ccc(O)cc2)NC(=O)[C@@H]2CCCN2C1=O [compound 14] (I: {CH2CO}-FLPY[3Pal]WPTYSE[3Pal]VECG[PEG8]K-NH2 / II: {CH2CO}-FLPY[3Pal]WPTYSE[3Pal]VECG[PEG8]; amide I:18-II:C (inferred); thioether I:N-I:15, II:N-II:15 (inferred)) | A (The peptide with 50% or more activity when 1 nM of the peptide was added was evaluated as A) | A (The peptide with 50% or more activity when 1 nM of the peptide was added was evaluated as A) | 86 | 
3 | CC(C)[C@@H]1NC(=O)[C@H](Cc2cccnc2)NC(=O)[C@H](CCC(=O)O)NC(=O)[C@H](CO)NC(=O)[C@H](Cc2ccc(O)cc2)NC(=O)[C@H]([C@@H](C)O)NC(=O)[C@@H]2CCCN2C(=O)[C@H](Cc2c[nH]c3ccccc23)NC(=O)[C@H](Cc2cccnc2)NC(=O)[C@H](Cc2ccc(O)cc2)NC(=O)[C@@H]2CCCN2C(=O)[C@H](CO)NC(=O)[C@H](Cc2ccccc2)NC(=O)CSC[C@@H](C(=O)NCC(=O)NCCOCCOCCOCCOCCOCCOCCOCCOCCC(=O)NCCCC[C@H](NC(=O)CCOCCOCCOCCOCCOCCOCCOCCOCCNC(=O)CNC(=O)[C@@H]2CSCC(=O)N[C@@H](Cc3ccccc3)C(=O)N[C@@H](CO)C(=O)N3CCC[C@H]3C(=O)N[C@@H](Cc3ccc(O)cc3)C(=O)N[C@@H](Cc3cccnc3)C(=O)N[C@@H](Cc3c[nH]c4ccccc34)C(=O)N3CCC[C@H]3C(=O)N[C@@H]([C@@H](C)O)C(=O)N[C@@H](Cc3ccc(O)cc3)C(=O)N[C@@H](CO)C(=O)N[C@@H](CCC(=O)O)C(=O)N[C@@H](Cc3cccnc3)C(=O)N[C@@H](C(C)C)C(=O)N[C@@H](CCC(=O)O)C(=O)N2)C(N)=O)NC(=O)[C@H](CCC(=O)O)NC1=O [compound 15] (I: {CH2CO}-FSPY[3Pal]WPTYSE[3Pal]VECG[PEG8]K-NH2 / II: {CH2CO}-FSPY[3Pal]WPTYSE[3Pal]VECG[PEG8]; amide I:18-II:C (inferred); thioether I:N-I:15, II:N-II:15 (inferred)) | A (The peptide with 50% or more activity when 1 nM of the peptide was added was evaluated as A) | A (The peptide with 50% or more activity when 1 nM of the peptide was added was evaluated as A) | 104 | 

Source: patent US20250282820A1, “PEPTIDE COMPLEX HAVING TRKB BINDING ACTIVITY” (PEPTIDREAM INC, priority 2022, published 2025)
